# Results: paper PMC9775191, “A Subset Screen of the Compounds Australia Scaffold Library Identifies 7-Acylaminodibenzoxazepinones as Potent and Selective Hits for Anti-Giardia Drug Discovery” (Biomedicines, 2022)
# Tested on: G. duodenalis BRIS/91/HEPU/1279
# Assay: Primary Giardia screen at 10 µM (live-cell imaging, automated counting)
# Assay type: cell-based, Giardia duodenalis
# Conditions: 24 h
# Outline: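 Percent growth versus 0.2% DMSO vehicle, background-corrected with media-only wells, is reported at 24 and 48 h from automated live-cell counts. Testing used 10 μM final in a 3% O2 atmosphere, with plate quality checked by Z' factor.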
row,SMILES,Average % Inhibition 24h
1,COc1ccc(C2=Nc3ccccc3N(CC(=O)Nc3cccc(F)c3)C(=O)C2)cc1 [SN00791795],12.6%
2,COc1ccc(C2=Nc3ccccc3N(Cc3cccc(F)c3)C(=O)C2)cc1 [SN00791806],8.7%

# Same assay, conditions: 24 h, first singlicate assay
row,SMILES,% Inhibition n=1 24h
1,COc1ccc(C2=Nc3ccccc3N(CC(=O)Nc3cccc(F)c3)C(=O)C2)cc1 [SN00791795],25.2%
2,COc1ccc(C2=Nc3ccccc3N(Cc3cccc(F)c3)C(=O)C2)cc1 [SN00791806],17.4%

# Same assay, conditions: 24 h, re-assessment
row,SMILES,% Inhibition n=2 24h
1,COc1ccc(C2=Nc3ccccc3N(CC(=O)Nc3cccc(F)c3)C(=O)C2)cc1 [SN00791795],0.0%
2,COc1ccc(C2=Nc3ccccc3N(Cc3cccc(F)c3)C(=O)C2)cc1 [SN00791806],0.0%

# Same assay, conditions: 48 h
row,SMILES,Average % Inhibition 48h
1,COc1ccc(C2=Nc3ccccc3N(CC(=O)Nc3cccc(F)c3)C(=O)C2)cc1 [SN00791795],40.3%
2,COc1ccc(C2=Nc3ccccc3N(Cc3cccc(F)c3)C(=O)C2)cc1 [SN00791806],30.2%

# Same assay, conditions: 48 h, first singlicate assay
row,SMILES,% Inhibition n=1 48h
1,Cc1ccc(-c2ncc(C(=O)NC3CCCCCC3)c(C)n2)cc1 [SN00790958],0.0%
2,CCc1nc(-c2ccc3c(c2)CCN3C(=O)CCc2ccc(OC)cc2)no1 [SN00790989],14.1%
3,COc1ccccc1-c1cc(C(=O)N2CCCN(c3ccc(=O)n(-c4ccc(C)c(C)c4)n3)CC2)[nH]n1 [SN00791007],8.7%
4,Cc1c(-c2nc(-c3cccnc3)no2)oc2ccc(S(=O)(=O)N3CCOCC3)cc12 [SN00791042],1.1%
5,CC(C)n1c(=O)c2cn(S(=O)(=O)c3ccccc3)nc2n(C(C)C)c1=O [SN00791107],5.9%
6,CCS(=O)(=O)N1CCC2(CC1)OC(=O)C(C)=C2C(=O)Nc1ccc(C)cc1C [SN00791146],0.0%
7,CCCN1CCN(C(=O)C2=C(C)C(=O)OC23CCN(S(=O)(=O)CC)CC3)CC1 [SN00791149],0.0%
8,O=C(Cn1c2ncccc2c(=O)n1-c1ccccc1)NC1CCCC1 [SN00791196],18.2%
9,CCC1c2cccn2-c2ccccc2CN1C(=O)NCCc1ccccc1 (stereo not drawn) [SN00791262],18.8%
10,CCOCCCNC(=O)N1Cc2ccccc2-n2cccc2C1c1ccccc1 (stereo not drawn) [SN00791279],0.0%
11,COc1cc(-c2noc(-c3cc(-c4ccco4)n[nH]3)n2)cc(OC)c1OC [SN00791289],2.3%
12,COc1ccc(-c2noc(-c3cc(-c4cccs4)n[nH]3)n2)cc1 [SN00791300],15.5%
13,COc1ccc(Cl)cc1-n1nnc(-c2nsc(NC(=O)c3ccccc3)n2)c1C [SN00791316],20.0%
14,COCCN1C(=O)c2oc3ccccc3c2OCC1(C)C(=O)NCc1ccccc1OC (stereo not drawn) [SN00791365],21.5%
15,COCCCN1C(=O)CSc2c(c(C)nn2-c2ccccc2)C1C(=O)NCc1ccccc1OC (stereo not drawn) [SN00791374],0.0%
16,Cc1nn(-c2ccccc2)c2c1C(C(=O)NC1CCCC1)N(c1ccc(F)cc1F)C(=O)CS2 (stereo not drawn) [SN00791377],1.8%
17,Cc1[nH]c(C)c(S(=O)(=O)N2CCCc3ccccc32)c1C(=O)N1CCCCC1 [SN00791426],0.0%
18,Cc1c(C(=O)N2CCCCC2)c(S(=O)(=O)N2CCN(c3ccccn3)CC2)c(C)n1C [SN00791445],0.0%
19,COc1ccc(OC)c(CNC(=O)c2ccc(N3CCOc4ccccc43)s2)c1 [SN00791505],9.9%
20,CCCNC(=O)N1Cc2c(sc3c2CCCC3)-n2cccc2C1CC (stereo not drawn) [SN00791532],15.0%
21,COc1ccccc1NC(=O)N1Cc2c(sc3c2CCN(C)C3)-n2cccc2C1C (stereo not drawn) [SN00791542],24.5%
22,CCOC(=O)c1ccccc1NC(=O)N1Cc2c(sc3c2CCN(C)C3)-n2cccc2C1CC (stereo not drawn) [SN00791557],10.1%
23,CCCN1C(=O)c2c(C(=O)NCCc3ccccc3)ncn2CC1(C)C(=O)NCCC(C)C (stereo not drawn) [SN00791583],9.0%

row,SMILES,% Inhibition n=1 48h
1,CCOc1ccc(CCNC(=O)c2c(C)oc3c2C2=NCCN2C=N3)cc1OCC [SN00791607],17.8%
2,COc1ccc(CN2CCN(C(=O)c3c(C)oc4c3C3=NCCN3C=N4)CC2)c(OC)c1OC [SN00791620],7.4%
3,O=C(c1noc2ncnc(N3CCCC3)c12)N1CCN(c2ccccn2)CC1 [SN00791654],7.3%
4,CCN(c1ccc(OC)cc1)S(=O)(=O)c1csc(C(=O)N(C)C)c1 [SN00791689],2.7%
5,CCc1ccc(CNC(=O)c2c[nH]nc2-c2ccc(Cl)cc2)cc1 [SN00791699],7.3%
6,O=C(c1c[nH]nc1-c1ccc(Cl)cc1)N1CCN(c2ccccc2)CC1 [SN00791700],26.6%
7,O=C(c1cc(CN2CCCC2)on1)N1CCN(C(=O)c2ccco2)CC1 [SN00791727],0.0%
8,Cc1cc2n(n1)CCCN2CC(=O)N1CCN(c2ccc(Cl)cc2)CC1 [SN00791741],2.4%
9,Cc1cc2n(n1)CCCN2CC(=O)N1CCN(c2cccc(Cl)c2)CC1 [SN00791744],5.3%
10,COc1ccc(CNc2nc(-c3cccc(OC)c3)no2)cc1 [SN00791772],0.0%
11,COc1cccc(-c2noc(Nc3cccc(C)c3)n2)c1 [SN00791775],0.0%
12,COc1ccc(C2=Nc3ccccc3N(CC(=O)Nc3cccc(F)c3)C(=O)C2)cc1 [SN00791795],54.2%
13,COc1ccc(C2=Nc3ccccc3N(Cc3cccc(F)c3)C(=O)C2)cc1 [SN00791806],50.8%
14,O=C(NCCCN1CCCC1)c1ccc2c(c1)N(CC(=O)N1CCCC1)C(=O)CO2 [SN00791845],0.0%
15,C=CCNC(=O)CCN1CCN(Cc2ccccc2)C1=O [SN00791850],0.0%
16,Cc1sc2c(c1C)C(c1ccc(F)cc1)=NCC(=O)N2CC(=O)Nc1ccc(Cl)cc1 [SN00791866],0.0%
17,CCN(CC)C(=O)CN1C(=O)CN=C(c2ccc(OC)cc2)c2c1sc1c2CCCC1 [SN00791881],0.0%
18,CC(=O)N1c2ccc(S(=O)(=O)N3CCCCC3)cc2CC1C(=O)N1CCCCC1 (stereo not drawn) [SN00791893],0.0%
19,COc1ccc(-c2cnc(C)o2)cc1S(=O)(=O)Nc1ccc(C)cc1 [SN00792030],22.0%
20,O=S(=O)(c1ccc(-c2cnc(C3CC3)o2)cc1)N1CCCCC1 [SN00792043],8.3%
21,CCCNc1nc(N2CCN(CC)CC2)c2cnn(C)c2n1 [SN00792083],10.1%
22,CCOC(=O)c1ccccc1NC(=O)NC(c1ccccc1)c1nnc(-c2ccccc2)o1 (stereo not drawn) [SN00792113],0.0%
23,O=C(CS(=O)(=O)c1ccc2c(c1)S(=O)(=O)N=CN2)Nc1ccccc1 [SN00792172],15.6%

row,SMILES,% Inhibition n=1 48h
1,CC(C)(C)c1ccc(C(=O)N2CCC3(CC2)N=C(c2cccc(Cl)c2)C(=O)N3)cc1 [SN00792200],32.1%
2,COc1ccc(CN2CCC3(CC2)N=C(c2ccc(C)cc2)C(=O)N3)cc1 [SN00792212],16.2%
3,Cc1ccc(S(=O)(=O)Nc2ccc3c(c2)N(C(=O)c2ccco2)CCC3)cc1C [SN00792238],12.2%
4,CCC(=O)N1CCCc2ccc(NS(=O)(=O)c3ccc(F)c(C)c3)cc21 [SN00792263],17.5%
5,O=C(NCc1cccc(Br)c1)c1ncoc1-c1cccs1 [SN00792278],6.4%
6,O=C(NCc1ccccc1Cl)c1cc2n(n1)CCCN(Cc1ccc(F)cc1)C2=O [SN00792328],0.0%
7,CCOC(=O)CNC(=O)N1Cc2c(C)nn(-c3ccccc3)c2-n2cccc2C1c1cccc(F)c1 (stereo not drawn) [SN00792341],8.0%
8,Cn1cc(-c2cc3n(n2)CCC(=O)N3CC(=O)N2CCC3(CC2)OCCO3)c2ccccc21 [SN00792412],10.8%
9,Cc1cccc(CN2CCC3(CC2)N=C(c2ccc(C)c(C)c2)C(=O)N3)c1 [SN00792562],12.3%
10,CCn1cc(C(=O)NCc2ccccc2)c(=O)c2ccc(C)nc21 [SN00792575],6.1%
11,CCOc1ccc(S(=O)(=O)Nc2cccc(-c3ccc(OC)nn3)c2)cc1 [SN00792604],10.8%
12,Cc1ccc(NS(=O)(=O)c2cn(C)c(C)n2)c(Br)c1 [SN00792660],25.8%
13,CC1Cc2ccccc2N1C(=O)c1cc(-c2cccnc2)[nH]n1 (stereo not drawn) [SN00792679],19.0%
14,CCOC(=O)Cc1ccc(NC(=O)N2CCC3(CC2)N=C(c2ccc(F)cc2)C(=O)N3)cc1 [SN00792712],14.3%
15,Cc1cccc(C2=NC3(CCN(C(=O)NC4CCCCC4)CC3)NC2=O)c1 [SN00792717],13.8%
16,CCC(=O)N1CCC2(CC1)N=C(c1cccc(OC)c1)C(=O)N2 [SN00792731],18.9%
17,CN1CCN(CCNC(=O)CN2C(=O)C3CCCCN3c3ccc(C(=O)N4CCCC4)cc32)CC1 (stereo not drawn) [SN00792767],13.0%
18,O=S(=O)(c1cccc(F)c1)N1CC(OCc2cccc(F)c2)C1 [SN00792818],10.0%
19,CSc1ccc(CCNC(=O)c2ccc3c(c2)nc2n3CCOC2)cc1 [SN00792852],12.8%
20,CCN(CC)S(=O)(=O)c1ccc2c(c1)cc(C(=O)NC1CCCC1)n2C [SN00792862],0.0%
21,CN(C)S(=O)(=O)c1ccc2c(c1)cc(C(=O)NCCCN1CCc3ccccc3C1)n2C [SN00792874],0.0%
22,Cc1ccc(CNC(=O)Cn2c(C)cc(C)c(-c3nc(-c4ccccc4)no3)c2=O)cc1 [SN00792891],0.0%

# Same assay, conditions: 48 h, re-assessment
row,SMILES,% Inhibition n=2 48h
1,COc1ccc(C2=Nc3ccccc3N(CC(=O)Nc3cccc(F)c3)C(=O)C2)cc1 [SN00791795],26.4%
2,COc1ccc(C2=Nc3ccccc3N(Cc3cccc(F)c3)C(=O)C2)cc1 [SN00791806],9.6%
